Measurements: patent publication US9266834B2, “1, 4-disubstituted 3-cyano-pyridone derivatives and their use as positive allosteric modulators of MGLUR2-receptors” (JANSSEN PHARMACEUTICALS, INC., priority 2006, dated 2016)

What was measured:
human mGluR2 receptor = target: T1, human mGluR2 receptor (Homo sapiens, UniProt Q14416); assay: [35S]GTPγS binding assay (GTPγS-PAM): positive allosteric modulation in presence of glutamate at EC25, membranes from transfected CHO cells; format: biochemical; conditions: in presence of mGluR2 agonist glutamate at predetermined EC25 concentration, averages of duplicate values of 11-concentration response curves, read-out: GTPgS - hR2 PAM pEC50 (converted)
T1 construct: expressed in transfected cells; host or cells: CHO cells (membrane preparation)
Outline: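 Potentiation was read as filter-retained [35S]GTPγS (0.1 nM final, 30 min, 30° C.) after a 30 min, 30° C. preincubation of human mGluR2 CHO membranes (15 μg/well) with EC25 glutamate and 11 modulator concentrations spanning 0.3 nM-50 μM. The buffer was 50 mM HEPES pH 7.4, NaCl, MgCl2, 50 μM GDP and saponin. Cold 10 μM GTP defined nonspecific binding; data were fitted by a four-parameter logistic.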

T1 sequence (Q14416 19-872): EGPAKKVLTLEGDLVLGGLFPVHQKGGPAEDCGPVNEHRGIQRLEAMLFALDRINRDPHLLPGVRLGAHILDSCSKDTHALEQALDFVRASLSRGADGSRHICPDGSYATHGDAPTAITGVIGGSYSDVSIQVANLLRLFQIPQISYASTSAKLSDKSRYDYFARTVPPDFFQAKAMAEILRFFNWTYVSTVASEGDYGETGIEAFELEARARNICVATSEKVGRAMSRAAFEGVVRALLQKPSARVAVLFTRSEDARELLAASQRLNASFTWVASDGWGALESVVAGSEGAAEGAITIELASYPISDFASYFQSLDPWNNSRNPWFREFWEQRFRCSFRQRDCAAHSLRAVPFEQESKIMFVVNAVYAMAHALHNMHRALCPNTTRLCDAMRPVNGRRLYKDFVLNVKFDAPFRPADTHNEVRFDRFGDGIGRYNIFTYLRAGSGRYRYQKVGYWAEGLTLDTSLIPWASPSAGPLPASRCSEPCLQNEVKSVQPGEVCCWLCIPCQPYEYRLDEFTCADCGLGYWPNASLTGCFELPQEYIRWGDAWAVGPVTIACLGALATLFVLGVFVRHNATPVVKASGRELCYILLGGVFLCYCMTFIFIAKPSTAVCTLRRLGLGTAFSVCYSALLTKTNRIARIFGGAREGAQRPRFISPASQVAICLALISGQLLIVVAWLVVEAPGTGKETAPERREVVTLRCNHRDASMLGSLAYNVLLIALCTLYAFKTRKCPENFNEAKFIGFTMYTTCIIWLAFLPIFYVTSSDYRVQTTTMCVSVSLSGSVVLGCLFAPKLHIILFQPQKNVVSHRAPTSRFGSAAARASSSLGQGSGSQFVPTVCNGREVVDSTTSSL

EC50 (human mGluR2 receptor) [nM] | melting point [°C] | SMILES
79.4 | 177 | CC(C)CCn1ccc(-c2ccc(OCc3ccccc3)c(Cl)c2)c(C#N)c1=O [1-150]
25.1 | 172 | CC(C)CCn1ccc(-c2ccc(-c3ccccc3)cc2)c(C#N)c1=O [1-093]
158 | 134 | CCCCn1ccc(N2CCN(Cc3ccc(OCC4CC4)c(Cl)c3)CC2)c(C#N)c1=O [2-003]
6310 | 130 | CC(C)CCn1ccc(-c2ccc(CN(C)C)cc2)c(C#N)c1=O [1-173]
2000 | 184 | N#Cc1c(-c2ccc(OCCN3CCOCC3)cc2)ccn(Cc2ccc(OC(F)(F)F)cc2)c1=O [1-037]
794 | 153 | COc1ccc(Oc2ccn(CCC(C)C)c(=O)c2C#N)cc1 [1-282]
79.4 | 148 | CC(C)CCn1ccc(-c2ccc(N3CCOc4ccccc43)cc2)c(C#N)c1=O [1-228]
79.4 | 146 | CC(C)CCn1ccc(-c2ccc(OCc3ccc(F)cc3)cc2)c(C#N)c1=O [1-147]
79.4 | 294 | CC(C)CCn1ccc(-c2ccc(OCC3CC3)c(Cl)c2)c(C#N)c1=O [1-134]
50.1 | 120 | CC(C)CCn1ccc(-c2ccc(OCc3cccc(Cl)c3)cc2)c(C#N)c1=O [1-149]
631 | 190 | CC(C)CCn1ccc(OCc2ccc(OC(F)F)cc2)c(C#N)c1=O [1-284]
1000 | 131 | CC(C)CCn1ccc(-c2ccc(OCC(F)F)c(Cl)c2)c(C#N)c1=O [1-122]
1260 | 113 | CC(C)CCn1ccc(N2CCC(N(C)Cc3ccc(F)cc3)CC2)c(C#N)c1=O [4-027]
63.1 | 100 | COc1cccc(COc2ccc(-c3ccn(CCC(C)C)c(=O)c3C#N)cc2)c1 [1-144]
2510 | 155 | Cc1ccc(Cn2ccc(-c3ccco3)c(C#N)c2=O)cc1 [1-018]
126 | 78 | CC(C)CCn1ccc(N2CCC(n3ccc4cc(F)ccc43)CC2)c(C#N)c1=O [4-037]
158 | 189 | CC(C)CCn1ccc(-c2ccc(OCC(F)(F)F)c(Cl)c2)c(C#N)c1=O [1-123]
398 | 217 | CC(C)CCn1ccc(N2CCC3Oc4ccccc4OC3C2)c(C#N)c1=O (centres unmarked) [5-037]
5010 | 103 | CCCCn1ccc(-c2cccs2)c(C#N)c1=O [1-059]
79.4 | 202 | CC(C)CCn1ccc(-c2ccc(OCc3ccc(C(F)(F)F)nc3)cc2)c(C#N)c1=O [1-163]
79.4 | 258 | N#Cc1c(N2CCN(c3ncccc3C(F)(F)F)CC2)ccn(Cc2ccc(OC(F)(F)F)cc2)c1=O [2-048]
200 | 138 | CN(Cc1ccccc1)C1CCN(c2ccn(Cc3ccc(OC(F)(F)F)cc3)c(=O)c2C#N)CC1 [4-049]
1000 | 294 | CC(C)CCn1ccc(-c2ccc(CN(C)Cc3ccccn3)cc2)c(C#N)c1=O [1-212]
251 | 155 | CC(C)CCn1ccc(N2CCN(c3nccc(C(F)(F)F)n3)CC2)c(C#N)c1=O [2-029]
25.1 | 157 | CC(C)CCn1ccc(-c2ccc(NCc3cccc(C#N)c3)cc2)c(C#N)c1=O [1-204]
631 | 85 | CC(C)CCn1ccc(-c2ccc(CCCO)cc2)c(C#N)c1=O [1-095, 3-cyano-4-(4-hydroxypropylphenyl)-1-(3-methylbutyl)pyridine-2(1H)-one]
316 | 111 | CC(C)CCn1ccc(N2CCc3c(n(C)c4ccc(F)cc34)C2)c(C#N)c1=O [5-040]
3160 | 92 | N#Cc1c(N2CCN(CC(=O)c3ccccc3)CC2)ccn(Cc2ccc(OC(F)(F)F)cc2)c1=O [2-046]
